# Data taken from PubChem BioAssay AID1963966 (Molecular Pharmacology Branch, DTP, NCI, 2024).
# System: 935938-334-R-J1-PDC spheroids with HUVEC/MSC, viability
# Assay: Anticancer human tumor 935938-334-R-J1-PDC patient-derived small intestine adenocarcinoma cell line growth inhibition [PI3K]
# Conditions: for IC50: curve of first compound; for viability, T/C: stronger effect = lower value
# Summary of the method: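 Targeted small molecules plus PI3K inhibitors, half-log dose series from Cmax (default top 10 microM), were applied to heterotypic spheroids of cancer cells with HUVEC and MSCs. Viability indicated growth inhibition.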
# 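Note: compound exposure lasted seven days before viability was read.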
# 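Throughout, for viability, T/C: percent of vehicle DMSO treated spheroid viability so 100% = untreated.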
compound,measurement,setting,value
CC1(C)CCC(Nc2ncc(C(F)(F)F)c(-c3c[nH]c4c(P(C)(C)=O)c(C#N)ccc34)n2)CN1 (configuration not stated) + CC(Nc1ncnc2nc[nH]c12)c1cc2cccc(Cl)c2c(=O)n1-c1ccccc1,IC50,second compound 0.0316 µM,< 31.6 nM
same,IC50,second compound 0.1 µM,< 31.6 nM
same,IC50,second compound 0.316 µM,< 31.6 nM
same,IC50,second compound 1 µM,< 31.6 nM
same,IC50,second compound 3.16 µM,< 31.6 nM
same,IC50,second compound 10 µM,< 31.6 nM
same,"viability, T/C","second compound 0.0316 µM, first compound 0.0316 µM",43%
same,"viability, T/C","second compound 0.0316 µM, first compound 0.1 µM",46.4%
same,"viability, T/C","second compound 0.0316 µM, first compound 0.316 µM",31.9%
same,"viability, T/C","second compound 0.0316 µM, first compound 1 µM",35.3%
same,"viability, T/C","second compound 0.0316 µM, first compound 3.16 µM",34.8%
same,"viability, T/C","second compound 0.0316 µM, first compound 10 µM",5.59%
same,"viability, T/C","second compound 0.1 µM, first compound 0.0316 µM",42.3%
same,"viability, T/C","second compound 0.1 µM, first compound 0.1 µM",36.5%
same,"viability, T/C","second compound 0.1 µM, first compound 0.316 µM",32.7%
same,"viability, T/C","second compound 0.1 µM, first compound 1 µM",36.9%
same,"viability, T/C","second compound 0.1 µM, first compound 3.16 µM",35.1%
same,"viability, T/C","second compound 0.1 µM, first compound 10 µM",6.35%
same,"viability, T/C","second compound 0.316 µM, first compound 0.0316 µM",38%
same,"viability, T/C","second compound 0.316 µM, first compound 0.1 µM",37.1%
same,"viability, T/C","second compound 0.316 µM, first compound 0.316 µM",41.2%
same,"viability, T/C","second compound 0.316 µM, first compound 1 µM",36.5%
same,"viability, T/C","second compound 0.316 µM, first compound 3.16 µM",26.8%
same,"viability, T/C","second compound 0.316 µM, first compound 10 µM",6.84%
same,"viability, T/C","second compound 1 µM, first compound 0.0316 µM",42%
same,"viability, T/C","second compound 1 µM, first compound 0.1 µM",35.5%
same,"viability, T/C","second compound 1 µM, first compound 0.316 µM",41%
same,"viability, T/C","second compound 1 µM, first compound 1 µM",34.8%
same,"viability, T/C","second compound 1 µM, first compound 3.16 µM",33.2%
same,"viability, T/C","second compound 1 µM, first compound 10 µM",7.47%
same,"viability, T/C","second compound 3.16 µM, first compound 0.0316 µM",30.8%
same,"viability, T/C","second compound 3.16 µM, first compound 0.1 µM",38.6%
same,"viability, T/C","second compound 3.16 µM, first compound 0.316 µM",41.8%
same,"viability, T/C","second compound 3.16 µM, first compound 1 µM",36.2%
same,"viability, T/C","second compound 3.16 µM, first compound 3.16 µM",32.6%
same,"viability, T/C","second compound 3.16 µM, first compound 10 µM",5.17%
same,"viability, T/C","second compound 10 µM, first compound 0.0316 µM",37.8%
same,"viability, T/C","second compound 10 µM, first compound 0.1 µM",37%
same,"viability, T/C","second compound 10 µM, first compound 0.316 µM",35.9%
same,"viability, T/C","second compound 10 µM, first compound 1 µM",35.1%
same,"viability, T/C","second compound 10 µM, first compound 3.16 µM",28.5%
same,"viability, T/C","second compound 10 µM, first compound 10 µM",5.58%
